Entries after “also recorded” stand apart in the source; their conditions may differ.
Assays:
Type in all cases: cell-based, human
Details in all cases: 48 h
[1] = test system: GM28010 SURF1 mutant fibroblasts; assay: Seahorse mitochondrial stress test, fibroblast cell line GM28010 (Experiment 2, combinations and single compounds)
Protocol: (§1) In order to evaluate selected compounds' impact on mitochondrial function in patient-derived fibroblasts compared to controls, three seahorse assays were conducted, Exp. 1: Fibroblast cell line GM28010—single compounds; Exp. 2. Fibroblast cell line GM28010—combination of compounds+ Single compounds; and Exp. 3: Fibroblast cell line GM28012—single compounds. Seahorse XF24 Extracellular Flux Analyzers continuously measure oxygen concentration and proton flux in the cell supernatant over time (Wu et al., 2007). The oxygen concentration and proton flux measurements are converted in OCR and ECAR values. This enables a direct quantification of mitochondrial respiration and glycolysis. The aim of the seahorse assays is to evaluate the impact of selected compounds on mitochondrial function in patient-derived fibroblasts compared to controls. Compounds used in the seahorse assays include posacanazole, sertaconazole, glabridin, zinglibroside (ginsenoside Z R1), AM281, cysteamine bitrartate, PF-06447475, losmapimod, telepravir, miltefosine, incyclinide, poziotinib, and methylene blue.
(§2) • Basal Oxygen Consumption (OCR): This reflects the cellular oxygen usage under basal conditions, encompassing both energy production (ATP turnover) and background oxygen leak from the mitochondria. • Oligomycin Injection: Oligomycin is a compound that inhibits ATP synthase, an enzyme crucial for ATP production within mitochondria. • Oligomycin-resistant Respiration: After oligomycin injection, minimal oxygen consumption persists, representing non-ATP linked oxygen leak from the mitochondria, often termed proton leak. • ATP-linked Respiration: This value is derived by subtracting the oligomycin-resistant respiration from the basal OCR. It signifies the oxygen consumption specifically linked to ATP production through mitochondrial oxidative phosphorylation. • Mitochondrial Bioenergetic Efficiency: This parameter reflects the percentage decrease in oxygen consumption observed after oligomycin injection, indicating the mitochondria's efficiency in utilizing oxygen for ATP generation. • FCCP Injection: FCCP is a chemical that disrupts the link between mitochondrial electron transport and ATP production. • Maximal Respiration: Following FCCP injection, the highest oxygen consumption rate is measured, representing the maximum capacity of the mitochondria to utilize oxygen for respiration. • Spare Respiratory Capacity: This parameter is calculated by subtracting basal respiration from maximal respiration.
GM28010 is a primary human fibroblast cell line that was obtained from patients with SURF1 Leigh syndrome. It was purchased from the Coriell Cell Repositories (Camden, N.J., repository number GM28010).
GM00038 is a primary human fibroblast cell line purchased from the Coriell Cell Repositories (Camden, N.J.; repository number GM00038). GM00038 was used as a healthy control.
(§3) Fibroblasts were grown in glucose according to recommendation. Cells were plated in XF96 plates in culture medium and plated at 10,000 cells/well. The day after plating, cells were treated with compounds. Treatments completed in glucose medium Compounds were tested at for 48 hours. The compounds were incubated at (37 C, 5% CO2) until the day of the experiment.
The fibroblasts were run at passage numbers: GM28010 SURF1 Fibroblasts P5.
The Assay Medium was 10 mM glucose or galactose DMEM supplemented with 2 mM glutamine and 1 mM pyruvate. Injection Ports for basal glucose: Port A: 2 μM oligomycin; Port B: 2.5 μM FCCP; Port C: 4 μM FCCP; and Port D: 2 μM rotenone and antimycin A. The Data were normalized to cell number per well after the run. The Hoechst-stained nuclei were counted with a Operetta High-Content Imager.

[2] = test system: GM28012 SURF1 fibroblasts; assay: Seahorse mitochondrial stress test, fibroblast cell line GM28012 (Experiment 3, single compounds)
Protocol: as §1, §2
GM28010 primary human fibroblasts obtained from patients with SURF1 Leigh syndrome were purchased from the Coriell Cell Repositories (Camden, N.J.; repository number GM28010).
GM00038 primary human fibroblasts purchased from the Coriell Cell Repositories (Camden, N.J., repository number GM00038) and were used as a healthy control.
as §3, with “plating, the” for “plating,”, “with the” for “with”, “The treatments” for “Treatments”, “and galactose medium. The compounds” for “Compounds”, “experiment. The fibroblasts were run at passage numbers: GM28012 SURF1 Fibroblasts P5.” for “experiment.”
The assay medium was 10 mM glucose or galactose DMEM supplemented with 2 mM glutamine and 1 mM pyruvate. Injection Ports for basal glucose: Port A: 2 μM oligomycin; Port B: 2.5 μM FCCP; Port C: 4 μM FCCP; and Port D: 2 μM rotenone and antimycin A.
The data were normalized to cell number per well after the run. The Hoechst-stained nuclei were counted with a Operetta High-Content Imager.

[3] = test system: GM28010 SURF1 mutant fibroblasts; assay: Seahorse mitochondrial stress test, fibroblast cell line GM28010 (Experiment 1, single compounds)
Protocol: as §1
Fibroblast cell line GM28010 is a primary human fibroblast cell line obtained from patients with SURF1 Leigh syndrome. It was purchased from the Coriell Cell Repositories (Camden, NJ, repository number GM28010). Cell line GM00038 was used as a healthy control for GM28010 and is a primary human fibroblast purchased from the Coriell Cell Repositories (Camden, NJ, repository number GM00038).
Fibroblasts were grown in glucose according to recommendation.
Cells were plated in XF96 plates in culture medium and were plated at 10,000 cells/well.
The day after plating, cells were treated with the compounds in Table 1. The treatments were completed in glucose medium and galactose medium. The compounds were tested at for 48 hours. The compounds were incubated at (37 C, 5% CO2) until the day of the experiment.
*Fibroblasts were run at passage numbers: GM28010 SURF1 Fibroblasts P5; GM00038F controls P9.
• Assay Medium: 10 mM glucose or galactose DMEM supplemented with 2 mM glutamine and 1 mM pyruvate. • Injection Ports for basal glucose: Port A: 2 μM oligomycin; Port B: 2.5 μM FCCP; Port C: 4 μM FCCP; and Port D: 2 μM rotenone and antimycin A.
Data were normalized to cell number per well after the run. The Hoechst-stained nuclei were counted with the Operetta High-Content Imager.
as §2

[4] = combinations at 1 μM losmapimod, 10 μM Ginsenoside Z R1, 10 μM PF-06447475, single compounds 1, 5, 10 μM
[5] = both glucose and galactose, listed as Cysteamine Bitrartate
[6] = glucose and galactose conditions
[7] = glucose and galactose conditions, listed as glabridin
[8] = glucose-cultured cells, listed as Telepravir
[9] = glucose and galactose conditions, listed as miltefosine

## CN(C)c1ccc2nc3ccc(=[N+](C)C)cc-3sc2c1 [Methylene Blue, methylene blue]
[1]; [4]
  ATP production rate through OXPHOS: dose-dependent decrease in ATP production through OXPHOS
  respiration (oxygen consumption rate): decreased oxygen consumption rates
  total ATP production rates: maintain ATP production rates
[1]; combinations at 1 μM losmapimod, 10 μM Ginsenoside Z R1, single compounds 1, 5, 10 μM
  ATP production through glycolysis: increase in ATP production through glycolysis

## NCCS [cysteamine bitartrate]
[1]; [4]
  respiration (oxygen consumption rate): did not alter oxygen consumption rates
[1]; higher concentrations
  ATP production rate through glycolysis: decreased
[2]
  ATP production through OXPHOS: Dose-dependent increase
  ATP production through glycolysis: decrease ATP production through glycolysis
  total ATP production rate: Dose-dependent increase
[2]; both glucose and galactose
  ATP-linked respiration: increased basal respiration and ATP-Linked respiration in a dose-dependent manner
  basal respiration: increased basal respiration and ATP-Linked respiration in a dose-dependent manner
[2]; [5]
  ATP-linked respiration: ↑basal respiration and ATP-
  basal respiration: ↑basal respiration and ATP-
[2]; glucose-cultured cells
  glycolysis: dose-dependent decrease
  maximal respiration: dose-dependent decrease
  toxicity: some toxicity
[2]; listed as Cysteamine Bitrartate
  ATP production through glycolysis: conditions. ↓ATP production

## CC1(C)C=Cc2c(ccc3c2OC[C@@H](c2ccc(O)cc2O)C3)O1 [Glabridin, glabridin]
[3]; [6]
  respiration: did not result in major changes
[3]; [7]
  respiration: did not result in major changes
[2]; [6]
  maximal respiration (maximal OCR): ↓ maximal OCR in both
[2]; [7]
  maximal respiration (maximal OCR): decreased maximal respiration

## N#Cc1cccc(-c2c[nH]c3ncnc(N4CCOCC4)c23)c1 [PF-06447475]
[3]
  ATP production through OXPHOS: increase in ATP production; also recorded: both conditions. ↑ ATP
  ATP production through glycolysis: increase in ATP production; also recorded: both conditions. ↑ ATP
[3]; [6]
  maximal respiration: did not result increase maximal respiration; also recorded: did not result in an increase
[2]
  ATP production through glycolysis: increase in ATP production glycolysis; also recorded: both conditions. ↑ ATP
[2]; 1 μM
  total ATP production rate: increased the total ATP Production rate
[2]; [6]
  maximal respiration (maximal OCR): did not result increase maximal respiration

## CCC[C@H](NC(=O)[C@@H]1[C@H]2CCC[C@H]2CN1C(=O)[C@@H](NC(=O)[C@@H](NC(=O)c1cnccn1)C1CCCCC1)C(C)(C)C)C(=O)C(=O)NC1CC1 [Telaprevir, telaprevir]
[3]; [6]
  respiration: did not result in major changes
[2]
  ATP production through OXPHOS: Dose-dependent increase
  total ATP production rate: without changes
[2]; galactose conditions
  respiration: did not result in major changes
[2]; glucose
  ATP production through OXPHOS: dose-dependent increase
[2]; glucose-cultured cells
  ATP-linked respiration: dose-dependent increase
  maximal respiration: without any changes
[2]; [8]
  ATP-linked respiration: dependent ↑ATP-Linked
  maximal respiration: through OXPHOS, no change
[2]; glucose, listed as Telepravir
  ATP production through OXPHOS: dependent ↑ATP-Linked

## Cc1c(C(=O)NN2CCOCC2)nn(-c2ccc(Cl)cc2Cl)c1-c1ccc(I)cc1 [AM281]
[3]; 5 and 10 μM
  ATP production through glycolysis: increase in ATP production primarily through glycolysis
[3]; [6]
  respiration: did not result in major changes
[2]
  ATP production rates: increased ATP production rates
[2]; 1 μM and 5 μM
  ATP via glycolysis: OCR. ↑ATP via glycolysis @
[2]; [6]
  maximal respiration (maximal OCR): dose-dependent decreased maximal respiration

## CCCCCCCCCCCCCCCCOP(=O)([O-])OCC[N+](C)(C)C [Miltefosine, miltefosine]
[3]; [9]
  respiration: did not result in major changes
[2]
  ATP production through glycolysis: both conditions; ↑ in ATP
[2]; [9]
  respiration: did not result in major changes
[2]; listed as miltefosine
  ATP production through glycolysis: increase in ATP production through glycolysis

— US20260315436A1, “METHOD OF TREATING DISORDERS WITH SURF1 MALFUNCTION” (Cure Mito Foundation, priority 2023, published 2026)
